This is an account of results in ChEMBL document CHEMBL3044617, “N-[2(3-Carboxyl-9-benzyl-carboline-1-yl)ethyl-1-yl]-amino acids: correlation of spectral property with in vivo anti-tumor activity” (2012).

Experiment [1] deals with DNA. The experiment can be described thus: Binding affinity to Bos taurus (calf) thymus DNA assessed as negative band intensity at 100 uM after 24 hr by CD spectra analysis (reference value: -15209 +/- 245 deg cm2/dmol'-1). The class given is nucleic-acid assay.
A further experiment has as its system CCRF S-180. Put plainly: Antitumor activity against Mus musculus (mouse) S180 cells xenografted in ICR Mus musculus (mouse) assessed as tumor growth inhibition at 89 umol/kg, ip qd for 7 days measured after 24 hr of last dose relative to control. The class given is functional. Particulars: CCRF S-180, ip, read-out: TGI.
The subject of experiment [2] is DNA. The experiment can be described thus: Binding affinity to Bos taurus (calf) thymus DNA assessed as change in DNA viscosity. The class given is nucleic-acid assay.
Experiment [3] has as its system DNA. The experiment can be described thus: Binding affinity to Bos taurus (calf) thymus DNA assessed as change melting temperature at 20 uM. Type of experiment: nucleic-acid assay.
Experiment [4] concerns DNA. Put plainly: Binding affinity to Bos taurus (calf) thymus DNA assessed as hypochromic effect at 20 uM by UV spectra analysis. Type of experiment: nucleic-acid assay.
Experiment [5] deals with DNA. The experiment can be described thus: Binding affinity to Bos taurus (calf) thymus DNA assessed as decrease in fluorescence intensity at 0.5 uM by fluorescence quenching assay. More on the design: scale not given: the % may be the effect or the level left. The class given is nucleic-acid assay.
Experiment [6] relates to DNA. Put plainly: Binding affinity to Bos taurus (calf) thymus DNA assessed as positive band intensity at 100 uM after 24 hr by CD spectra analysis (reference value: 21429 +/- 276 deg cm2/dmol'-1). The class given is nucleic-acid assay.
For experiment [7], the system named is DNA. The experiment can be described thus: Binding affinity to Bos taurus (calf) thymus DNA assessed as bathochromic shift at 0.5 uM by fluorescence quenching assay. The class given is nucleic-acid assay.
In experiment [8] the test system is DNA. Put plainly: Binding affinity to Bos taurus (calf) thymus DNA assessed as hypsochromic shift at 20 uM by UV spectra analysis. Type of experiment: nucleic-acid assay.
Experiment [9] concerns DNA. Put plainly: Binding affinity to Bos taurus (calf) thymus DNA assessed as melting temperature at 20 uM (reference value: 60.3 degC). Type of experiment: nucleic-acid assay.

As a reminder, the ΔTm is the shift of the melting midpoint relative to a reference.

Molecules are shown by their SMILES. The source made the active and inactive calls. The rule behind the calls is not given here.

`O=C(O)c1cc2c3ccccc3n(Cc3ccccc3)c2c(CCN[C@@H](Cc2ccc(O)cc2)C(=O)O)n1`: the molecular ellipticity in the experiment on DNA [1] is -1080 deg.cm2/dmol; with DNA [6], 28900 deg.cm2/dmol. Further, the inhibition in vivo at 89 µmol/kg in the experiment on CCRF S-180 is 48.6%. Moreover, the outcome in the experiment on DNA [2] was Active. Besides, the ΔTm in the experiment on DNA [3] stood at 11.9 °C. For the same compound, the Activity in the experiment on DNA [4] turned out to be 30.5%; in the experiment with DNA [5], 58.7%; in the experiment on DNA [7], 4.4 nm; in the experiment on DNA [8] it was 4.8 nm. The Tm in the experiment on DNA [9] came to 72.2 °C.

On to `Nc1ccn([C@@H]2O[C@H](CO)[C@@H](O)[C@@H]2O)c(=O)n1` [CYTARABINE], for which the inhibition in vivo at 89 µmol/kg with CCRF S-180 stood at 54.8%.

In the case of `O=C(O)c1cc2c3ccccc3n(Cc3ccccc3)c2c(CCN[C@@H](CO)C(=O)O)n1`, the figures for the molecular ellipticity in the experiment with DNA [1] and in the experiment on DNA [6] were -23700 deg.cm2/dmol and 10100 deg.cm2/dmol, respectively. Further, the inhibition in vivo at 89 µmol/kg in the experiment on CCRF S-180 amounted to 35.3%. For the same compound, the result in the experiment on DNA [2] was Active. Besides, the thermal shift (ΔTm) in the experiment on DNA [3] was 10.8 °C. For the same compound, the Activity in the experiment with DNA [4] worked out at 29.6%; in the experiment with DNA [5] it was 42.4%; with DNA [7] it was 4.6 nm; in the experiment on DNA [8] it was 4.8 nm. Moreover, the Tm in the experiment on DNA [9] turned out to be 71.1 °C.

With `O=C(O)C[C@H](NCCc1nc(C(=O)O)cc2c3ccccc3n(Cc3ccccc3)c12)C(=O)O`, the values for the molecular ellipticity in the experiment on DNA [1] and with DNA [6] were -36300 deg.cm2/dmol and 2750 deg.cm2/dmol, respectively. The inhibition in vivo at 89 µmol/kg in the experiment with CCRF S-180 worked out at 34.7%. Also, the outcome with DNA [2] was Active. In addition, the ΔTm in the experiment with DNA [3] came to 12.9 °C. The Activity with DNA [4] was 32%; in the experiment with DNA [5], 63.9%; with DNA [7], 8.2 nm; in the experiment with DNA [8] it was 3.4 nm. Further, in the experiment with DNA [9], the Tm stood at 73.2 °C.

On to `C[C@@H](O)[C@H](NCCc1nc(C(=O)O)cc2c3ccccc3n(Cc3ccccc3)c12)C(=O)O`, for which the molecular ellipticity was -5800 deg.cm2/dmol with DNA [1] and 17400 deg.cm2/dmol in the experiment with DNA [6]. Further, the inhibition in vivo at 89 µmol/kg with CCRF S-180 is -29.1%. Further, the result with DNA [2] was Active. Moreover, in the experiment with DNA [3], the ΔTm stood at 4.9 °C. Also, the Activity in the experiment with DNA [4] was determined as 0%; in the experiment with DNA [5] it was 32.6%; with DNA [7], 2.2 nm; in the experiment on DNA [8], 0 nm. Besides, the Tm in the experiment with DNA [9] stood at 65.4 °C.
